# Test results from patent US10155753B2, “4-substituted-2-(5-substituted-1H-indol-2-yl)phenol derivatives, methods for preparing the phenol derivatives and pharmaceutical compositions for inhibiting cell proliferation and migration including the phenol derivatives” (KOREA UNIVERSITY RESEARCH AND BUSINESS FOUNDATION, priority 2015, dated 2018).
# Molecular target: T1, YANK3 (Homo sapiens, UniProt Q86UX6)
# T1 construct: expressed in transfected cells; host or cells: MCF7 cells, Lipofectamine transfection, anti-HA immunoprecipitation
# T1 sequence (Q86UX6 whole entry): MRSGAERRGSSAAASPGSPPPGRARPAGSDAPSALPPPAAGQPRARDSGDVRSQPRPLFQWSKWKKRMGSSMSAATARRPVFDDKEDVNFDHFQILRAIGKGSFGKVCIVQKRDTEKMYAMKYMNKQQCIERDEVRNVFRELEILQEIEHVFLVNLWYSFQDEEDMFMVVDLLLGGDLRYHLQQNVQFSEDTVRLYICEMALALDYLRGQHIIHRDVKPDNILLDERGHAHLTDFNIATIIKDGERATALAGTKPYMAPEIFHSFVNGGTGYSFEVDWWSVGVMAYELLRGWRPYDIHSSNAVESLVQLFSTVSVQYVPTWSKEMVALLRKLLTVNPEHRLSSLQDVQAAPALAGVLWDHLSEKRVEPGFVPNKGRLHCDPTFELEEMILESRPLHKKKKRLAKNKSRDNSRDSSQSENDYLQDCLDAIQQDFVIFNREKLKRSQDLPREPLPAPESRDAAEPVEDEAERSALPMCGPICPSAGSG
# Test: In vitro kinase assay: inhibition of YANK3 phosphorylation (IP kinase, [γ-32P]ATP, autoradiography)
# Type: biochemical
# Set-up: dose or concentration left out as unconfirmed
# Details: MCF7 cells treated with each compound at 37° C. for 1 h; anti-HA IP, kinase reaction 30° C. 30 min
# Method: Transduction was performed to overexpress YANK3-HA and YB1-HA genes in cells. Lipofectamine reagent (Invitrogen) was used for gene introgression. When cells were grown to a confluency of 60% in a culture dish, human YANK3-HA and YB1-HA genes were introduced into MCF7 cells. After 48 h, the gene-transfected cells were used for experiments. All cultured cells were harvested, lysed in a lysis buffer (1×RIPA buffer 1 mL, 1 mM PMSF, 1 mg/mL aprotinin, 1 mg/mL leupeptin, 2 mM DTT) for 30 min, and centrifuged at 15,000 rpm and 4° C. for 30 min. The supernatant was collected and its total protein content was quantified by the Bradford method. After YB1-HA gene introgression, the MCF7 cells were treated with each compound […] at 37° C. for 1 h. 1 μg of anti-HA antibody was cultured with […] of protein at 4° C. for 15 h, 20 μL of protein A/G-Sepharose was added thereto, followed by culture for another 2 h. The culture was centrifuged to precipitate the protein A/G-Sepharose, washed with IP kinase buffer (50 mM HEPES, pH 7.5, 10 mM MgCl2, 1 mM dithiothreitol, 2.5 mM EGTA, 1 mM NaF, 0.1 mM Na3VO4), and sufficiently mixed with 20 μL of IP kinase buffer. The kinase reaction was initiated by the addition of […] of [γ-^32P]ATP to 40 μL of IP kinase buffer. The reaction was allowed to proceed at 30° C. for 30 min. After addition of 5 μL of 2×SDS sample buffer, the reaction was quenched by boiling for 5 min, which was confirmed by SDS-PAGE electrophoresis and autoradiography.
row,"Inhibition, % (inhibitions (%) of YANK3 phosphorylation) [%]",Compound
1,125,"Oc1ccc(-c2ccc(Cl)cc2)cc1-c1cc2cc(Cl)ccc2[nH]1 [Formula 16, 4′-Chloro-3-(5-chloro-1H-indol-2-yl)biphenyl-4-ol]"
2,65,"N=C(N)c1ccc2[nH]c(-c3cc(-c4ccc(Cl)cc4)ccc3O)cc2c1 [Compound 32, 2-(4′-Chloro-4-hydroxybiphenyl-3-yl)-1H-indole-5-carboximidamide]"
3,30,"N=C(N)c1ccc2[nH]c(-c3cc(-c4cccs4)ccc3O)cc2c1 [Compound 33, 2-(2-Hydroxy-5-(thiophen-2-yl)phenyl)-1H-indole-5-carboximidamide]"
4,163,"COc1ccc(-c2ccc(O)c(-c3cc4ccccc4[nH]3)c2)cc1 [Formula 11, 3-(1H-Indol-2-yl)-4′-methoxybiphenyl-4-ol]"
5,144,"N#Cc1ccc2[nH]c(-c3cc(Br)ccc3O)cc2c1 [Formula 9, 2-(5-Bromo-2-hydroxyphenyl)-1H-indole-5-carbonitrile]"
6,74,"Oc1ccc(Br)cc1-c1cc2cc(F)ccc2[nH]1 [Formula 7, 4-Bromo-2-(5-fluoro-1H-indol-2-yl)phenol]"

row,Compound,"Inhibition, % (inhibitions (%) of YANK3 phosphorylation) [%]"
1,Oc1ccc(-c2ccc(Cl)cc2)cc1-c1cc2cc(F)ccc2[nH]1 [Formula 13],93

# System: YANK-expressed cells (STK32C/MCF7 cell)
# Test: Inhibition of cell proliferation (MCF7, STK32C/MCF7 cells, 96-well, read at 450 nm)
# Type: cell-based
# Details: 24 h after addition of compound; FIGS. 3 to 6
# Method: MCF7, STK32C/MCF7 cell (1×10^4/well) culture was plated in each well of a 96-well plate until it reached a final volume of 100 μl. After 24 h, the compounds at given concentrations were added. 24 h after the addition, 10 μl of an analytical reagent was plated in each well without bubbling. The reaction was allowed to proceed under basic culture conditions for 30 min to 1 h and the inhibitions of cell proliferation were measured at 450 nm.
# FIGS. 3 to 6 show concentration-dependent inhibitions of proliferation of the YANK-expressed cells by treatment with the phenol derivatives of Formulae 7, 9, 13, and 32 (corresponding to Compound 34 in FIG. 2), respectively.
row,Compound,concentration-dependent inhibition of proliferation of YANK-expressed cells
1,"N=C(N)c1ccc2[nH]c(-c3cc(-c4ccc(Cl)cc4)ccc3O)cc2c1 [Compound 32, 2-(4′-Chloro-4-hydroxybiphenyl-3-yl)-1H-indole-5-carboximidamide]",inhibited the proliferation of the YANK-expressed cells with high efficacy with increasing concentration
2,Oc1ccc(-c2ccc(Cl)cc2)cc1-c1cc2cc(F)ccc2[nH]1 [Formula 13],inhibited the proliferation of the YANK-expressed cells with high efficacy with increasing concentration
3,"N#Cc1ccc2[nH]c(-c3cc(Br)ccc3O)cc2c1 [Formula 9, 2-(5-Bromo-2-hydroxyphenyl)-1H-indole-5-carbonitrile]",inhibited the proliferation of the YANK-expressed cells with high efficacy with increasing concentration
4,"Oc1ccc(Br)cc1-c1cc2cc(F)ccc2[nH]1 [Formula 7, 4-Bromo-2-(5-fluoro-1H-indol-2-yl)phenol]",inhibited the proliferation of the YANK-expressed cells with high efficacy with increasing concentration
